Laboratory results from patent US20130345199A1, “1-[M-CARBOXAMIDO(HETERO)ARYL-METHYL]-PIPERIDINE-4-CARBOXAMIDE DERIVATIVES” (Actelion Pharmaceuticals Ltd., priority 2012, published 2013).

Biological target: T1, CXCR7 (Homo sapiens, UniProt P25106)
T1 construct: host or cells: CHO-K1 (PathHunter CXCR7 b-arrestin cell line, stably transfected)
Assay: PathHunter CHO-K1 CXCR7 b-arrestin assay (agonistic activity)
Format: cell-based
Conditions: PathHunter CHO-K1 CXCR7 b-arrestin cell line, 90 minutes at 37° C.
Description: The […] receptor and CXCR7 agonistic activities of the compounds of formula (I) are determined in accordance with the following experimental method.
The assay is using the PathHunter™ CHO-K1 CXCR7 b-arrestin cell line from DiscoverX. The system is based on the Enzyme Fragment Complementation Technology. Two complementing fragments of the b-galactosidase enzyme are expressed within stably transfected cells. The larger portion of b-gal, termed EA for Enzyme Acceptor, is fused to the C-terminus of b-arrestin 2. The smaller fragment, termed ProLink™ tag, is fused to CXCR7 at the C-terminus. Upon activation, b-arrestin is recruited which forces the interaction of ProLink and EA, allowing complementation of the two fragments of b-gal and the formation of a functional enzyme which is capable of hydrolysing the substrate and generating a chemiluminescent signal.
CHO-K1 CXCR7 b-arrestin cells are detached from culture dishes with a cell dissociation buffer (Invitrogen, #13151-014) and collected in growing medium (F12HAMS 90% (v/v)/FCS 10% (v/v), Penicilin/streptomycin 1% (v/v)). 5000 cells per well (in 20 μl) are seeded in a 384 well plate (white-walled, clear bottom; BD Falcon #353274). The plate is incubated at 37° C./5% CO2 for 24 hours. Medium is then replaced by […] (Invitrogen #31985) for 3 to 4 hours. Test compounds are dissolved at 10 mM in DMSO and serially diluted in DMSO to 200× of the final concentration for dose response curves. Compounds are then diluted 1:33.3 in HBSS1X. 5 μl/well of HBSS1X/20 mM HEPES/0.2% BSA are added to the assay plate followed by addition of 5 μl/well of diluted compounds. CXCL12 (Peprotech #300-28A) may be used as a reference agonist. The plate is incubated for 90 minutes at 37° C. 12 μl of detection reagent (Path Hunter Detection Kit, DiscoveRx, #93-0001) is transferred to the assay plate and to the plate is incubated for 1 hour at room temperature. Luminescent signal is read in a microplate reader (FLUOstar Optima, bmg). The calculated EC50 values may fluctuate depending on the daily cellular assay performance. Fluctuations of this kind are known to those skilled in the art.

T1 sequence (P25106 whole entry): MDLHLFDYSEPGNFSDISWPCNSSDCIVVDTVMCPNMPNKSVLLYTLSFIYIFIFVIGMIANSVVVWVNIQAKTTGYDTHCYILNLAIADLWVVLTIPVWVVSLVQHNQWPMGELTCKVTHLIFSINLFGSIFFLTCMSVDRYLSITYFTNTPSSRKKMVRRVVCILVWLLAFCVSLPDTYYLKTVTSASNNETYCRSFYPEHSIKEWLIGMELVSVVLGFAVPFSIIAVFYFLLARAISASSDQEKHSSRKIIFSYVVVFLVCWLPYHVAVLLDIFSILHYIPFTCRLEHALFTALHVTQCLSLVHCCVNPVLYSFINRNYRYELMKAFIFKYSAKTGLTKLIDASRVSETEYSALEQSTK

| SMILES | EC50 |
| --- | --- |
| CC(C)(C)NC(=O)C1CCN(Cc2cccc(NC(=O)c3ccc(Cl)cc3)c2)CC1 [Example 2.004] | 1 nM |
| COCCNC(=O)C1CCN(Cc2cccc(NC(=O)c3ccc(Cl)cc3)c2)CC1 [Example 2.005] | 5 nM |
| O=C(Nc1cccc(CN2CCC(C(=O)NC3CC3)CC2)c1)c1ccc(Cl)cc1 [Example 2.006] | 2 nM |
| O=C(Nc1cccc(CN2CCC(C(=O)NC3CCC3)CC2)c1)c1ccc(Cl)cc1 [Example 2.007] | 1 nM |
| CCN(CC)C(=O)C1CCN(Cc2cccc(NC(=O)c3ccc(Cl)cc3)c2)CC1 [Example 2.009] | 1 nM |
| O=C(Nc1cccc(CN2CCC(C(=O)NCC3CCCC3)CC2)c1)c1ccc(Cl)cc1 [Example 2.010] | 4 nM |
| O=C(Nc1cccc(CN2CCC(C(=O)NC3CCC(O)CC3)CC2)c1)c1ccc(Cl)cc1 (stereo not drawn) [Example 2.011] | 241 nM |
| CC(C)(C)C1CCC(NC(=O)C2CCN(Cc3cccc(NC(=O)c4ccc(Cl)cc4)c3)CC2)CC1 (stereo not drawn) [Example 2.012] | 1050 nM |
| O=C(Nc1cccc(CN2CCC(C(=O)NC3CCC(F)(F)CC3)CC2)c1)c1ccc(Cl)cc1 [Example 2.014] | 2 nM |
| O=C(Nc1cccc(CN2CCC(C(=O)NCC3CCCCC3)CC2)c1)c1ccc(Cl)cc1 [Example 2.015] | 46 nM |
| CC(C)(NC(=O)C1CCN(Cc2cccc(NC(=O)c3ccc(Cl)cc3)c2)CC1)c1ccccc1 [Example 2.017] | 219 nM |
| O=C(Nc1cccc(CN2CCC(C(=O)NCc3ccncc3)CC2)c1)c1ccc(Cl)cc1 [Example 2.021] | 218 nM |
| O=C(Nc1cccc(CN2CCC(C(=O)NCc3ccccn3)CC2)c1)c1ccc(Cl)cc1 [Example 2.022] | 20 nM |
| O=C(Nc1cccc(CN2CCC(C(=O)NCc3cccnc3)CC2)c1)c1ccc(Cl)cc1 [Example 2.023] | 162 nM |
| O=C(Nc1cccc(CN2CCC(C(=O)NCc3nccs3)CC2)c1)c1ccc(Cl)cc1 [Example 2.024] | 32 nM |
| O=C(Nc1cccc(CN2CCC(C(=O)NCc3ccccc3Cl)CC2)c1)c1ccc(Cl)cc1 [Example 2.025] | 17 nM |
| COc1ccccc1CNC(=O)C1CCN(Cc2cccc(NC(=O)c3ccc(Cl)cc3)c2)CC1 [Example 2.026] | 15 nM |
| O=C(Nc1cccc(CN2CCC(C(=O)NCc3cccc(Cl)c3)CC2)c1)c1ccc(Cl)cc1 [Example 2.027] | 442 nM |
| COc1cccc(CNC(=O)C2CCN(Cc3cccc(NC(=O)c4ccc(Cl)cc4)c3)CC2)c1 [Example 2.028] | 394 nM |
| O=C(Nc1cccc(CN2CCC(C(=O)NCc3ccc(Cl)cc3)CC2)c1)c1ccc(Cl)cc1 [Example 2.029] | 433 nM |
| COc1ccc(CNC(=O)C2CCN(Cc3cccc(NC(=O)c4ccc(Cl)cc4)c3)CC2)cc1 [Example 2.030] | 832 nM |
| O=C(Nc1cccc(CN2CCC(C(=O)NCC(F)(F)F)CC2)c1)c1ccc(Cl)cc1 [Example 2.031] | 3 nM |

| SMILES | EC50 |
| --- | --- |
| O=C(Nc1cccc(CN2CCC(C(=O)NC3(CO)CCCC3)CC2)c1)c1ccc(Cl)cc1 [Example 2.032] | 5 nM |
| O=C(Nc1cccc(CN2CCC(C(=O)NC3Cc4ccccc4C3)CC2)c1)c1ccc(Cl)cc1 [Example 2.033] | 9 nM |
| Cc1cc(CNC(=O)C2CCN(Cc3cccc(NC(=O)c4ccc(Cl)cc4)c3)CC2)c(C(F)(F)F)o1 [Example 2.034] | 533 nM |
| O=C(Nc1cccc(CN2CCC(C(=O)NCc3ccccc3)CC2)c1)c1ccc(Cl)cc1 [Example 2.035] | 45 nM |
| Cc1cncc(C(=O)Nc2cccc(CN3CCC(C(=O)NC4CC4)CC3)c2)c1 [Example 2.037] | 82 nM |
| Cc1cncc(C(=O)Nc2cccc(CN3CCC(C(=O)NC(C)C)CC3)c2)c1 [Example 2.038] | 12 nM |
| Cc1cncc(C(=O)Nc2cccc(CN3CCC(C(=O)NC(C)(C)C)CC3)c2)c1 [Example 2.039] | 3 nM |
| CCC(CC)NC(=O)C1CCN(Cc2cccc(NC(=O)c3cncc(C)c3)c2)CC1 [Example 2.040] | 8 nM |
| Cc1cncc(C(=O)Nc2cccc(CN3CCC(C(=O)NC4CCC4)CC3)c2)c1 [Example 2.041] | 13 nM |
| Cc1cncc(C(=O)Nc2cccc(CN3CCC(C(=O)NC4CCCC4)CC3)c2)c1 [Example 2.042] | 5 nM |
| Cc1cncc(C(=O)Nc2cccc(CN3CCC(C(=O)NCC4CC4)CC3)c2)c1 [Example 2.043] | 20 nM |
| Cc1cncc(C(=O)Nc2cccc(CN3CCC(C(=O)NC4CCC(F)(F)CC4)CC3)c2)c1 [Example 2.044] | 27 nM |
| Cc1cncc(C(=O)Nc2cccc(CN3CCC(C(=O)NC4(C#N)CC4)CC3)c2)c1 [Example 2.045] | 402 nM |
| Cc1cncc(C(=O)Nc2cccc(CN3CCC(C(=O)N4CCCCC4)CC3)c2)c1 [Example 2.046] | 6 nM |
| Cc1cncc(C(=O)Nc2cccc(CN3CCC(C(=O)N4CCCC4)CC3)c2)c1 [Example 2.047] | 67 nM |
| Cc1cncc(C(=O)Nc2cccc(CN3CCC(C(=O)N4CCCCCC4)CC3)c2)c1 [Example 2.048] | 19 nM |
| Cc1cncc(C(=O)Nc2cccc(CN3CCC(C(=O)N4CCC(F)(F)CC4)CC3)c2)c1 [Example 2.049] | 300 nM |
| Cc1cncc(C(=O)Nc2cccc(CN3CCC(C(=O)N4C(C)CCC4C)CC3)c2)c1 (stereo not drawn) [Example 2.051] | 96 nM |
| Cc1cncc(C(=O)Nc2cccc(CN3CCC(C(=O)N4CC[C@@H](F)C4)CC3)c2)c1 [Example 2.052] | 121 nM |
| Cc1cncc(C(=O)Nc2cccc(CN3CCC(C(=O)N4CC[C@H](F)C4)CC3)c2)c1 [Example 2.053] | 195 nM |
| Cc1cncc(C(=O)Nc2cccc(CN3CCC(C(=O)N4CCC(F)(F)C4)CC3)c2)c1 [Example 2.054] | 109 nM |
| Cc1cncc(C(=O)Nc2cccc(CN3CCC(C(=O)N(C)C)CC3)c2)c1 [Example 2.055] | 60 nM |

| SMILES | EC50 |
| --- | --- |
| CCCN(C)C(=O)C1CCN(Cc2cccc(NC(=O)c3cncc(C)c3)c2)CC1 [Example 2.056] | 6 nM |
| Cc1cncc(C(=O)Nc2cccc(CN3CCC(C(=O)N(C)CC(C)C)CC3)c2)c1 [Example 2.057] | 8 nM |
| COCCN(C)C(=O)C1CCN(Cc2cccc(NC(=O)c3cncc(C)c3)c2)CC1 [Example 2.058] | 224 nM |
| CCC(C)(C)NC(=O)C1CCN(Cc2cccc(NC(=O)c3cncc(C)c3)c2)CC1 [Example 2.059] | 3 nM |
| Cc1cncc(C(=O)Nc2cccc(CN3CCC(C(=O)N4CCCC4(C)C)CC3)c2)c1 [Example 2.060] | 10 nM |
| Cc1cncc(C(=O)Nc2cccc(CN3CCC(C(=O)N4CCC(C)(C)C4)CC3)c2)c1 [Example 2.061] | 64 nM |
| Cc1cncc(C(=O)Nc2cccc(CN3CCC(C(=O)NC4CCCC4)C3)c2)c1 (stereo not drawn) [Example 2.062] | 28 nM |
| Cc1cncc(C(=O)Nc2cccc(CN3CCC(C(=O)NC4CCCCC4)C3)c2)c1 (stereo not drawn) [Example 2.063] | 92 nM |
| CCC(CO)NC(=O)C1CCN(Cc2cccc(NC(=O)c3cccc(C(F)(F)F)n3)c2)CC1 (stereo not drawn) [Example 2.065] | 26 nM |
| O=C(Nc1cccc(CN2CCC(C(=O)N[C@H](CO)C3CCCCC3)CC2)c1)c1cccc(C(F)(F)F)n1 [Example 2.066] | 431 nM |
| CC(C)(C)[C@@H](CO)NC(=O)C1CCN(Cc2cccc(NC(=O)c3cccc(C(F)(F)F)n3)c2)CC1 [Example 2.067] | 406 nM |
| CNC(=O)C1CCN(Cc2cccc(NC(=O)c3cccc(C(F)(F)F)n3)c2)CC1 [Example 2.068] | 4 nM |
| CCNC(=O)C1CCN(Cc2cccc(NC(=O)c3cccc(C(F)(F)F)n3)c2)CC1 [Example 2.069] | 4 nM |
| CC(C)(C)CNC(=O)C1CCN(Cc2cccc(NC(=O)c3cccc(C(F)(F)F)n3)c2)CC1 [Example 2.070] | 6 nM |
| CC(C)CNC(=O)C1CCN(Cc2cccc(NC(=O)c3cccc(C(F)(F)F)n3)c2)CC1 [Example 2.071] | 2 nM |
| CNC(=O)C1CCN(Cc2cccc(NC(=O)c3cccs3)c2)CC1 [Example 2.072] | 188 nM |
| CN(C)C(=O)C1CCN(Cc2cccc(NC(=O)c3cccs3)c2)CC1 [Example 2.073] | 155 nM |
| CCN(CC)C(=O)C1CCN(Cc2cccc(NC(=O)c3cccs3)c2)CC1 [Example 2.074] | 70 nM |
| O=C(Nc1cccc(CN2CCC(C(=O)NC3CCCCC3)CC2)c1)c1cccs1 [Example 2.075] | 7 nM |
| O=C(Nc1cccc(CN2CCC(C(=O)NCc3ccccc3)CC2)c1)c1cccs1 [Example 2.076] | 780 nM |
| CN(C(=O)C1CCN(Cc2cccc(NC(=O)c3cccs3)c2)CC1)C1CCCCC1 [Example 2.077] | 87 nM |
| CCCCCCNC(=O)C1CCN(Cc2cccc(NC(=O)c3cccc(C(F)(F)F)n3)c2)CC1 [Example 2.078] | 257 nM |
